Read-outs that look alike come from different tables or passages of the source.
Key:
HCT116 MTAP null cells = experiment: HCT116 MTAP null cell line proliferation (CellTiter-Glo cell viability, 6 days); format: cell-based; settings: HCT116 MTAP null cells, 6 days of treatment, CellTiter-Glo cell viability, read-out: HCT-116 MTAP null IC50
Summary of the method: (§1)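 Isogenic HCT116 pair (parent and MTAP double-allele knockout) in RPMI 1640 + 10% FBS, exposed 6 days to compound: 8–9-point 1:3 dilutions from 1 or 10 μM top, or 22-point 1:2 dilutions from 10 or 50 μM top. CellTiter-Glo luminescence; IC50 from sigmoidal fit (Hill −1) or 4-parameter logistic.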

HCT116 WT cells = experiment: HCT116 WT cell line proliferation (CellTiter-Glo cell viability, 6 days); format: cell-based; settings: HCT116 WT (parent) cells, 6 days of treatment, CellTiter-Glo cell viability, read-out: HCT-116 WT IC50
Summary of the method: as §1

IC50 (HCT116 MTAP null cells; HCT116-MTAP null, 144 h) [nM]	IC50 (HCT116 WT cells; Homo sapiens, HCT-116, 144 h) [µM]	IC50 (HCT116 MTAP null cells) [nM]	IC50 (HCT116 WT cells) [µM]	Molecule
161	9.89	–	–	C[C@H]1OCc2c1c(N)nc1ccc(C(=O)N3CCOC[C@H]3c3ccc(F)c(C(F)(F)F)c3)cc21 (racemic) [Example 374, ((3R)-4-amino-3-methyl-1,3-dihydrofuro [3,4-c]quinolin-8-yl)((3R)-3-(4-fluoro-3-(trifluoromethyl)phenyl)-4-morpholinyl)methanone and ((3R)-4-amino-3-methyl-1,3-dihydrofuro[3,4-c]quinolin-8-yl)((3S)-3-(4-fluoro-3-(trifluoromethyl)phenyl)-4-morpholinyl)methanone]
27	0.503	–	–	C[C@@H]1COC[C@H](c2ccc(C(F)(F)F)cc2)N1C(=O)c1ccc2nc(N)c3c(c2c1)COC3 [Example 527, (4-amino-1,3-dihydrofuro[3,4-c]quinolin-8-yl)((3R,5S)-3-methyl-5-(4-(trifluoromethyl)phenyl)-4-morpholinyl)methanone]
–	–	421	14.6	(4-amino-1-methyl-1H- pyrazolo[4,3- c][1,7]naphthyridin-8- yl)((3R)-3-(4- (trifluoromethyl)phenoxy)-1- pyrrolidinyl)methanone and (4-amino-1-methyl-1H- pyrazolo[4,3- c][1,7]naphthyridin-8- yl)((3S)-3-(4- (trifluoromethyl)phenoxy)-1- pyrrolidinyl)methanone [Example 433]
547	> 50	–	–	Nc1nc2cc(Cl)c(C(=O)N3CC[C@@](O)(c4ccc(C(F)(F)F)cc4)C3)cc2c2c1COC2 (single isomer, unassigned) [Example 477]
2180	40.3	–	–	C[C@@H]1OCc2c1c(N)nc1cnc(C(=O)N3CCOC[C@@H]3c3ccc(C(F)(F)F)cc3)cc21 (single isomer, unassigned) [Example 453]
182	7.57	–	–	Nc1nc2ccc(C(=O)N3CCOC[C@@H]3c3cccc(Cl)c3)cc2c2c1COC2 (single isomer, unassigned) [Example 579]
19	0.646	–	–	C[C@@H]1COC[C@H](c2ccc(OC(F)(F)F)cc2)N1C(=O)c1ccc2nc(N)c3c(c2c1)CO[C@@H]3C [Example 536, ((3R)-4-amino-3-methyl-1,3-dihydrofuro[3,4-c]quinolin-8-yl)((3R,5S)-3-methyl-5-(4-(trifluoromethoxy)phenyl)-4-morpholinyl)methanone]
–	–	344	5.02	Nc1nc2cnc(C(=O)N3CCOCC3c3ccc(OC(F)(F)F)cc3F)cc2c2c1COC2 (racemic) [Example 386, (4-amino-1,3-dihydrofuro[3,4-c][1,7]naphthyridin-8-yl)((3R)-3-(2-fluoro-4-(trifluoromethoxy)phenyl)-4-morpholinyl)methanone and (4-amino-1,3-dihydrofuro[3,4-c][1,7]naphthyridin-8-yl)((3S)-3-(2-fluoro-4-(trifluoromethoxy)phenyl)-4-morpholinyl)methanone]
32	1.06	–	–	C[C@@H]1COC[C@H](c2ccc(OCC(F)(F)F)nn2)N1C(=O)c1cc2c3c(c(N)nc2cn1)COC3 [Example 563, (4-amino-1,3-dihydrofuro[3,4-c][1,7]naphthyridin-8-yl)((3R,5S)-3-methyl-5-(6-(2,2,2-trifluoroethoxy)-3-pyridazinyl)-4-morpholinyl)methanone]
> 1000	> 10	–	–	Nc1nc2ccc(C(=O)N3CCOCC3c3ccc(Br)nn3)cc2c2c1COC2 (racemic) [Example 500, (4-amino-1,3-dihydrofuro[3,4-c]quinolim-8-yl)-[rac-(3S)-3-(6-bromopyridazin-3-yl)morpholin-4-yl]methanone]
–	–	23	1.68	Nc1nc2cc(Cl)c(C(=O)N3CCOCC3c3ccc(OC(F)F)nc3)cc2c2c1COC2 (racemic) [Example 384, (4-amino-7-chloro-1,3-dihydrofuro[3,4-c]quinolin-8-yl)((3R)-3-(6-(difluoromethoxy)-3-pyridinyl)-4-morpholinyl)methanone and (4-amino-7-chloro-1,3-dihydrofuro[3,4-c]quinolin-8-yl)((3S)-3-(6-(difluoromethoxy)-3-pyridinyl)-4-morpholinyl)methanone]
396	3.85	–	–	Cn1ncc2c(N)nc3cc(C(F)(F)F)c(C(=O)N4CC[C@H](c5ccc(C(F)(F)F)cc5)C4)cc3c21 [Example 547, (4-amino-1-methyl-7-(trifluoromethyl)-1H-pyrazolo[4,3-c]quinolin-8-yl)((3R)-3-(4-(trifluoromethyl)phenyl)-1-pyrrolidinyl)methanone]
241	> 10	–	–	Nc1nc2ccc(C(=O)N3CCOC[C@@H]3c3ccc(Br)cn3)cc2c2c1COC2 (single isomer, unassigned) [Example 573]
8710	18.6	–	–	Nc1nc2cnc(C(=O)N3CCOC[C@H]3c3ccc(S(F)(F)(F)(F)F)cc3)cc2c2c1COC2 (single isomer, unassigned) [Example 457]
100	5.02	–	–	C[C@H]1OCc2c1c(N)nc1cnc(C(=O)N3CCOC[C@@H]3c3ccc(C(F)(F)F)cc3)cc21 (racemic) [Example 338, ((3R)-4-amino-3-methyl-1,3-dihydrofuro[3,4-c][1,7]naphthyridin-8-yl)((3S)-3-(4-(trifluoromethyl)phenyl)-4-morpholinyl)methanone and ((3S)-((4-amino-3-methyl-1,3-dihydrofuro[3,4-c][1,7]naphthyridin-8-yl)((3S)-3-(4-(trifluoromethyl)phenyl)-4-morpholinyl)methanone]
40	1.74	–	–	Nc1nc2cnc(C(=O)N3CCCC[C@@H]3c3ccc(C(F)(F)F)cc3)cc2c2c1COC2 (single isomer, unassigned) [Example 485]
–	–	106	4.75	C[C@@H]1COC[C@H](c2ccc(OC(F)F)nn2)N1C(=O)c1ccc2nc(N)c3c(c2c1)COC3 (racemic) [Example 315, (4-amino-1,3-dihydrofuro[3,4-c]quinolin-8-yl)((3R,5S)-3-(6-(difluoromethoxy)-3-pyridazinyl)-5-methyl-4-morpholinyl)methanone and (4-amino-1,3-dihydrofuro[3,4-c]quinolin-8-yl)((3S,5R)-3-(6-(difluoromethoxy)-3-pyridazinyl)-5-methyl-4-morpholinyl)methanone]
37	0.689	–	–	Nc1nc2cnc(C(=O)N3CCOC[C@@H]3c3ccc(C(F)(F)F)cc3)cc2c2cnccc12 [Example 501, (5-aminopyrido[4,3-c][1,7]naphthyridin-9-yl)((3S)-3-(4-(trifluoromethyl)phenyl)-4-morpholinyl)methanone]
> 1000	> 10	–	–	Nc1nc2ccc(C(=O)N3CCOC[C@H]3c3ccc(Cl)cc3)cc2c2c1COC2 (single isomer, unassigned) [Example 580]
147	4.4	–	–	Cn1ncc2c(N)nc3ccc(C(=O)N4CC[C@H](c5ccc(C(F)(F)F)cc5)C4)cc3c21 [Example 425, (4-amino-1-methyl-1H-pyrazolo[4,3-c]quinolin-8-yl)((3R)-3-(4-(trifluoromethyl)phenyl)-1-pyrrolidinyl)methanone]
29	1.67	–	–	Cn1ncc2c(N)nc3ccc(C(=O)N4CCOC[C@@H]4c4ccc(C(F)(F)C(F)(F)F)cc4)cc3c21 [Example 409, (4-amino-1-methyl-1H-pyrazolo[4,3-c]quinolin-8-yl)((3S)-3-(4-(pentafluoroethyl)phenyl)-4-morpholinyl)methanone]
603	6.61	–	–	Nc1nc2ccc(C(=O)N3CCOCC3c3ccc(CC(F)(F)F)cc3)cc2c2c1COC2 (racemic) [Example 508, (4-amino-1,3-dihydrofuro[3,4-c]quinolin-8-yl)((3R)-3-(4-(2,2,2-trifluoroethyl)phenyl)-4-morpholinyl)methanone and (4-amino-1,3-dihydrofuro[3,4-c]quinolin-8-yl)((3S)-3-(4-(2,2,2-trifluoroethyl)phenyl)-4-morpholinyl)methanone]
416	4.21	–	–	Nc1nc2cc(F)c(C(=O)N3CCOC[C@@H]3c3ccc(C(F)(F)F)cc3)cc2c2c1CCO2 [Example 407, (4-amino-7-fluoro-2,3-dihydrofuro[3,2-c]quinolin-8-yl)((3S)-3-(4-(trifluoromethyl)phenyl)-4-morpholinyl)methanone]
871	13.2	–	–	Nc1nc2ccc(C(=O)N3CCOCC3c3ccc(F)c(OC(F)(F)F)c3)cc2c2c1COC2 (racemic) [Example 341, (4-amino-1,3-dihydrofuro[3,4-c]quinolin-8-yl)((3R)-3-(4-fluoro-3-(trifluoromethoxy)phenyl)-4-morpholinyl)methanone and (4-amino-1,3-dihydrofuro[3,4-c]quinolin-8-yl)((3S)-3-(4-fluoro-3-(trifluoromethoxy)phenyl)-4-morpholinyl)methanone]
–	–	35	1.13	CC1OCc2c1c(N)nc1cnc(C(=O)N3C(C)COCC3c3ccc(OC(F)F)nn3)cc21 (mixture of isomers) [Example 316, ((3R)-4-amino-3-methyl-1,3-dihydrofuro[3,4-c][1,7]naphthyridin-8-yl)((3R,5S)-3-(6-(difluoromethoxy)-3-pyridazinyl)-5-methyl-4-morpholinyl)methanone and ((3R)-4-amino-3-methyl-1,3-dihydrofuro[3,4-c][1,7]naphthyridin-8-yl)((3S,5R)-3-(6-(difluoromethoxy)-3-pyridazinyl)-5-methyl-4-morpholinyl)methanone]

Reference: patent US11845760B2, “PRMT5 inhibitors” (AMGEN INC., priority 2020, dated 2023)
